Data on 18 compounds can be found in patent US20230093099A1, “COMPOUNDS AND METHODS OF TREATING CANCERS” (CULLGEN (SHANGHAI), INC., priority 2019, published 2023).

The experiment has as its system RS4;11 cells. Briefly: Cell viability assay (CellTiter-Glo) in RS4;11 cells. Format: cell-based. The following applies: Homo sapiens, 72 h; RS4;11 cells; cell viability, 3 days, CellTiter-Glo; read-out: IC50. Put shortly:
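RS4;11 cells seeded at 5000 per well, exposed for 3 days to 8- or 12-point 3-fold serial dilutions. Viability read by CellTiter-Glo luminescence; IC50 fitted by nonlinear least-squares regression.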
For orientation: Cellular ATP, detected with luciferase, serves as a proxy for viable cell number.
In the case of `O=C(CN1CCC(n2cc(-c3cnc4cccc(-c5cc(F)c(CN6CCOCC6)c(F)c5)c4n3)cn2)CC1)NCCOCCOCCOCCOCCOCCNc1cccc2c1C(=O)N(C1CCC(=O)NC1=O)C2=O` (stereo not drawn) [JA-143, 2-[4-[4-[8-[3,5-Difluoro-4-(morpholinomethyl)phenyl]quinoxalin-2-yl]pyrazol-1-yl]-1-piperidyl]-N-[2-[2-[2-[2-[2-[2-[[2-(2,6-dioxo-3-piperidyl)-1,3-dioxo-isoindolin-4-yl]amino]ethoxy]ethoxy]ethoxy]ethoxy]ethoxy]ethyl]acetamide], the IC50 was above 10 µM. On to `Cc1ncsc1-c1ccc(CNC(=O)[C@@H]2C[C@@H](O)CN2C(=O)[C@@H](NC(=O)CCCCCCNC(=O)CN2CCC(n3cc(-c4cnc5cccc(-c6cc(F)c(CN7CCOCC7)c(F)c6)c5n4)cn3)CC2)C(C)(C)C)cc1` [JA-165, (2S,4R)-1-((S)-2-(7-(2-(4-(4-(8-(3,5-Difluoro-4-(morpholinomethyl)phenyl)quinoxalin-2-yl)-1H-pyrazol-1-yl)piperidin-1-yl)acetamido)heptanamido)-3,3-dimethylbutanoyl)-4-hydroxy-N-(4-(4-methylthiazol-5-yl)benzyl)pyrrolidine-2-carboxamide], for which the half-inhibitory concentration (IC50) was above 10 µM.

For the compound `CS(=O)(=O)c1ccc(-c2cccc3nc(Nc4ccc(N5CCN(C(=O)CCOCCNc6ccc7c(c6)C(=O)N(C6CCC(=O)NC6=O)C7=O)CC5)cc4)nn23)cc1` (stereo not drawn) [JA-195, 2-(2,6-Dioxopiperidin-3-yl)-5-((2-(3-(4-(4-((5-(4-(methylsulfonyl)phenyl)-[1,2,4]triazolo[1,5-a]pyridin-2-yl)amino)phenyl)piperazin-1-yl)-3-oxopropoxy)ethyl)amino)isoindoline-1,3-dione], the IC50 was above 10 µM. The same measure for `Cc1cnc(Nc2ccc(N3CCN(CC(=O)NCC(=O)N[C@H](C(=O)N4C[C@H](O)C[C@H]4C(=O)NCc4ccc(-c5scnc5C)cc4)C(C)(C)C)CC3)cc2)nc1Nc1cccc(S(=O)(=O)NC(C)(C)C)c1` [JA-097, (2S,4R)-1-((S)-2-(2-(2-(4-(4-((4-((3-(N-(tert-Butyl)sulfamoyl)phenyl)amino)-5-methylpyrimidin-2-yl)amino)phenyl)piperazin-1-yl)acetamido)acetamido)-3,3-dimethylbutanoyl)-4-hydroxy-N-(4-(4-methylthiazol-5-yl)benzyl)pyrrolidine-2-carboxamide]: above 10 µM; for `Cc1cnc(Nc2ccc(N3CCN(C(=O)CCCNc4ccc5c(c4)C(=O)N(C4CCC(=O)NC4=O)C5=O)CC3)cc2)nc1Nc1cccc(S(=O)(=O)NC(C)(C)C)c1` (stereo not drawn) [JA-227, N-(tert-butyl)-3-((2-((4-(4-(4-((2-(2,6-dioxopiperidin-3-yl)-1,3-dioxoisoindolin-5-yl)amino)butanoyl)piperazin-1-yl)phenyl)amino)-5-methylpyrimidin-4-yl)amino)benzenesulfonamide]: 3.11 µM.

Regarding `Cc1ncsc1-c1ccc(CNC(=O)[C@@H]2C[C@@H](O)CN2C(=O)[C@@H](NC(=O)CCCCCCNC(=O)CN2CCN(c3ccc(Nc4nc5cccc(-c6ccc(S(C)(=O)=O)cc6)n5n4)cc3)CC2)C(C)(C)C)cc1` [JA-123, (2S,4R)-1-((S)-3,3-Dimethyl-2-(7-(2-(4-(4-((5-(4-(methylsulfonyl)phenyl)-[1,2,4]triazolo[1,5-a]pyridin-2-yl)amino)phenyl)piperazin-1-yl)acetamido)heptanamido)butanoyl)-4-hydroxy-N-(4-(4-methylthiazol-5-yl)benzyl)pyrrolidine-2-carboxamide], the half-maximal inhibitory concentration (IC50) is above 10 µM. For `Cc1cnc(Nc2ccc(N3CCN(CC(=O)NCCOCCC(=O)N[C@H](C(=O)N4C[C@H](O)C[C@H]4C(=O)NCc4ccc(-c5scnc5C)cc4)C(C)(C)C)CC3)cc2)nc1Nc1cccc(S(=O)(=O)NC(C)(C)C)c1` [JA-218, (2S,4R)-1-((S)-2-(3-(2-(2-(4-(4-((4-((3-(N-(tert-butyl)sulfamoyl)phenyl)amino)-5-methylpyrimidin-2-yl)amino)phenyl)piperazin-1-yl)acetamido)ethoxy)propanamido)-3,3-dimethylbutanoyl)-4-hydroxy-N-(4-(4-methylthiazol-5-yl)benzyl)pyrrolidine-2-carboxamide] the value was above 10 µM; for `CS(=O)(=O)c1ccc(-c2cccc3nc(Nc4ccc(N5CCN(CC(=O)NCCOCCOCCOCCNc6ccc7c(c6)C(=O)N(C6CCC(=O)NC6=O)C7=O)CC5)cc4)nn23)cc1` (stereo not drawn) [JA-209, N-(2-(2-(2-(2-((2-(2,6-Dioxopiperidin-3-yl)-1,3-dioxoisoindolin-5-yl)amino)ethoxy)ethoxy)ethoxy)ethyl)-2-(4-(4-((5-(4-(methylsulfonyl)phenyl)-[1,2,4]triazolo[1,5-a]pyridin-2-yl)amino)phenyl)piperazin-1-yl)acetamide], above 10 µM. For `Cc1cnc(Nc2ccc(N3CCN(CC(=O)NCCOCCOCCOCCC(=O)N[C@H](C(=O)N4C[C@H](O)C[C@H]4C(=O)NCc4ccc(-c5scnc5C)cc4)C(C)(C)C)CC3)cc2)nc1Nc1cccc(S(=O)(=O)NC(C)(C)C)c1` [JA-221, (2S,4R)-1-((S)-17-(tert-butyl)-1-(4-(4-((4-((3-(N-(tert-butyl)sulfamoyl)phenyl)amino)-5-methylpyrimidin-2-yl)amino)phenyl)piperazin-1-yl)-2,15-dioxo-6,9,12-trioxa-3,16-diazaoctadecan-18-oyl)-4-hydroxy-N-(4-(4-methylthiazol-5-yl)benzyl)pyrrolidine-2-carboxamide] the value was above 10 µM; for `CS(=O)(=O)c1ccc(-c2cccc3nc(Nc4ccc(N5CCN(CC(=O)NCCCCCCCNc6cccc7c6C(=O)N(C6CCC(=O)NC6=O)C7=O)CC5)cc4)nn23)cc1` (stereo not drawn) [JA-116, N-(7-((2-(2,6-Dioxopiperidin-3-yl)-1,3-dioxoisoindolin-4-yl)amino)heptyl)-2-(4-(4-((5-(4-(methylsulfonyl)phenyl)-[1,2,4]triazolo[1,5-a]pyridin-2-yl)amino)phenyl)piperazin-1-yl)acetamide], above 10 µM; for `O=C(CN1CCC(n2cc(-c3cnc4cccc(-c5cc(F)c(CN6CCOCC6)c(F)c5)c4n3)cn2)CC1)NCCCCNc1cccc2c1C(=O)N(C1CCC(=O)NC1=O)C2=O` (stereo not drawn) [JA-146, 2-(4-(4-(8-(3,5-Difluoro-4-(morpholinomethyl)phenyl)quinoxalin-2-yl)-1H-pyrazol-1-yl)piperidin-1-yl)-N-(4-((2-(2,6-dioxopiperidin-3-yl)-1,3-dioxoisoindolin-4-yl)amino)butyl)acetamide], above 10 µM. The same measure for `Cc1cnc(Nc2ccc(N3CCN(CC(=O)NCCOCCOCCOCCOCCNc4ccc5c(c4)C(=O)N(C4CCC(=O)NC4=O)C5=O)CC3)cc2)nc1Nc1cccc(S(=O)(=O)NC(C)(C)C)c1` (stereo not drawn) [JA-240, 2-(4-(4-((4-((3-(N-(tert-butyl)sulfamoyl)phenyl)amino)-5-methylpyrimidin-2-yl)amino)phenyl)piperazin-1-yl)-N-(14-((2-(2,6-dioxopiperidin-3-yl)-1,3-dioxoisoindolin-5-yl)amino)-3,6,9,12-tetraoxatetradecyl)acetamide]: 0.638 µM; for `Cc1cnc(Nc2ccc(N3CCN(CC(=O)NCCCCCCCCNc4ccc5c(c4)C(=O)N(C4CCC(=O)NC4=O)C5=O)CC3)cc2)nc1Nc1cccc(S(=O)(=O)NC(C)(C)C)c1` (stereo not drawn) [JA-247, 2-(4-(4-((4-((3-(N-(tert-butyl)sulfamoyl)phenyl)amino)-5-methylpyrimidin-2-yl)amino)phenyl)piperazin-1-yl)-N-(8-((2-(2,6-dioxopiperidin-3-yl)-1,3-dioxoisoindolin-5-yl)amino)octyl)acetamide]: 0.484 µM. As for `Cc1ncsc1-c1ccc(CNC(=O)[C@@H]2C[C@@H](O)CN2C(=O)[C@@H](NC(=O)CNC(=O)CN2CCC(n3cc(-c4cnc5cccc(-c6cc(F)c(CN7CCOCC7)c(F)c6)c5n4)cn3)CC2)C(C)(C)C)cc1` [JA-158, (2S,4R)-1-((S)-2-(2-(2-(4-(4-(8-(3,5-Difluoro-4-(morpholinomethyl)phenyl)quinoxalin-2-yl)-1H-pyrazol-1-yl)piperidin-1-yl)acetamido)acetamido)-3,3-dimethylbutanoyl)-4-hydroxy-N-(4-(4-methylthiazol-5-yl)benzyl)pyrrolidine-2-carboxamide], the IC50 was above 10 µM. Take `O=C1CCC(N2C(=O)c3cccc(NCCCCCCCC(=O)N4CCC(n5cc(-c6cnc7cccc(-c8cc(F)c(CN9CCOCC9)c(F)c8)c7n6)cn5)CC4)c3C2=O)C(=O)N1` (stereo not drawn) [JA-038, 4-[[8-[4-[4-[8-[3,5-Difluoro-4-(morpholinomethyl)phenyl]quinoxalin-2-yl]pyrazol-1-yl]-1-piperidyl]-8-oxo-octyl]amino]-2-(2,6-dioxo-3-piperidyl)isoindoline-1,3-dione]: the half-maximal inhibitory concentration (IC50) is above 10 µM. The same measure for `Cc1cnc(Nc2ccc(N3CCN(CC(=O)NCCOCCOCCOCC(=O)N[C@H](C(=O)N4C[C@H](O)C[C@H]4C(=O)NCc4ccc(-c5scnc5C)cc4)C(C)(C)C)CC3)cc2)nc1Nc1cccc(S(=O)(=O)NC(C)(C)C)c1` [JA-220, (2S,4R)-1-((S)-2-(tert-butyl)-17-(4-(4-((4-((3-(N-(tert-butyl)sulfamoyl)phenyl)amino)-5-methylpyrimidin-2-yl)amino)phenyl)piperazin-1-yl)-4,16-dioxo-6,9,12-trioxa-3,15-diazaheptadecanoyl)-4-hydroxy-N-(4-(4-methylthiazol-5-yl)benzyl)pyrrolidine-2-carboxamide]: above 10 µM. The same measure for `O=C(CN1CCC(n2cc(-c3cnc4cccc(-c5cc(F)c(CN6CCOCC6)c(F)c5)c4n3)cn2)CC1)NCCOCCOCCOCCOCCNc1cccc2c1C(=O)N(C1CCC(=O)NC1=O)C2=O` (stereo not drawn) [JA-142, 2-[4-[4-[8-[3,5-Difluoro-4-(morpholinomethyl)phenyl]quinoxalin-2-yl]pyrazol-1-yl]-1-piperidyl]-N-[2-[2-[2-[2-[2-[[2-(2,6-dioxo-3-piperidyl)-1,3-dioxo-isoindolin-4-yl]amino]ethoxy]ethoxy]ethoxy]ethoxy]ethyl]acetamide]: above 10 µM; for `CS(=O)(=O)c1ccc(-c2cccc3nc(Nc4ccc(N5CCN(C(=O)CCCCCCc6ccc7c(c6)C(=O)N(C6CCC(=O)NC6=O)C7)CC5)cc4)nn23)cc1` (stereo not drawn) [JA-268, 3-(6-(7-(4-(4-((5-(4-(methylsulfonyl)phenyl)-[1,2,4]triazolo[1,5-a]pyridin-2-yl)amino)phenyl)piperazin-1-yl)-7-oxoheptyl)-1-oxoisoindolin-2-yl)piperidine-2,6-dione]: 0.0054 µM.

In general, IC50 refers to the concentration needed to halve the response being measured.
